Reference: patent US7745455B2 (priority 2005, dated 2010)
Several values for one entry are separate records, joined by “and”; a condition that tells them apart may be missing. Equal entries are not always repeated.

What was measured:
[1] = tested on: 3TC-TP formation; details: in vitro; cited from earlier work
[2] = Plasmatic 3TC levels in patients with or without ddC-boosted 3TC treatment; format: in vivo, human; details: individual HIV patients, one line per patient and date, 3TC with low dose ddC or without ddC
Protocol: It should be noted that for the plasma levels, the peak (post-dose) was at about 2 hours of the drug administration: this is not the case with intracellular triphosphate concentrations where the peaks might occur later than 2 hours post drug administration.

[3] = human, in vivo; cited from earlier work
[4] = tested on: HIV; details: 300 mg instead of 150 mg; cited from earlier work
[5] = tested on: ddC phosphorylation; details: in vitro, identical concentration ratios of 10 to 100 μM; cited from earlier work
[6] = tested on: HIV; format: in vivo; details: individual patients by date; 3TC lines = before ddC was started
[7] = tested on: CD4+; assay: CD4+ count in treated patients (immunological data); format: in vivo, human; details: individual patients by date; 3TC lines = before ddC was started
[8] = human, in vivo; cited from earlier work; remark: listed apart in the source
[9] = tested on: HIV; details: cited from earlier work
[10] = tested on: 3TC phosphorylation; details: in vitro, at extremely high ddC concentrations (10 to 100 higher than those of 3TC); cited from earlier work

Row | SMILES | extracellular concentration at which 3TC-TP formation is saturated [1] [µM] | concentration at 2 h ([2]; human, in vivo, 3TC plasma levels 2 h post dose) [ng/mL] | 3TC plasma levels 2 h post dose [2] | 3TC plasma levels Pre-dose [2] | 3TC-TP levels reported in the literature [3] | effect of increased dose on 3TC-TP levels [4] | inhibition of ddC phosphorylation [5] | Viral load [6] | CD4+ [7] | plasma levels [8] [nM] | concentration needed for antiretroviral activity (in vivo toxicity index) [9] [µM] | toxic concentration (in vivo toxicity index) [9] [µM] | inhibition of 3TC phosphorylation [10]
1 | Nc1ccn([C@@H]2CS[C@H](CO)O2)c(=O)n1 [3TC, 2′ deoxy-3′-thiacytidine] | 10 | 700 | 779 ng/ml and 1 057 ng/ml | 143 ng/ml and 35 ng/ml (2×) | 1-5 μmol/10^6 PBMC | did not significantly increased the 3TC-TP levels | inhibited ddC phosphorylation in a concentration-dependent manner | 291 392 ^ and 1 344 ^ and 124 and 445 | 180 and 760 and 220 and 770 | – | – | – | –
2 | Nc1ccn([C@H]2CC[C@@H](CO)O2)c(=O)n1 [ddC, 2′-3′-dideoxycytidine] | – | – | – | – | – | – | – | – | – | 500 to 1500 | 0.1 | 0.2 | did inhibit in vitro 3TC phosphorylation
